Where two headings read alike, the source gives them in different places.
Tests used:
[1] = target: human D2LR (Homo sapiens (Human), UniProt P14416); assay: Radioligand competition binding vs. [3H]-(R)-(+)-7-OH-DPAT, hD2R
[2] = target: human D3R (Homo sapiens (Human), UniProt P35462); assay: Radioligand competition binding vs. [3H]-(R)-(+)-7-OH-DPAT, hD3R; settings: for D2R/D3R / D4R/D3R: ratio of Ki; for D2R/D3R: D3R selectivity over D2R
[3] = target: human D4.4 (Homo sapiens (Human), UniProt P21917); assay: Radioligand competition binding vs. [3H]-(R)-(+)-7-OH-DPAT, hD4R; settings: HEK293 cells stably expressing hD4R, read-out: D4R Ki ± SEM
[4] = vs. [3H]-(R)-(+)-7-OH-DPAT, HEK293 cells stably expressing hD2R, read-out: D2R Ki ± SEM
[5] = vs. [3H]-(R)-(+)-7-OH-DPAT, HEK293 cells stably expressing hD3R, read-out: D3R Ki ± SEM

Sequence of human D3R (P35462 whole entry): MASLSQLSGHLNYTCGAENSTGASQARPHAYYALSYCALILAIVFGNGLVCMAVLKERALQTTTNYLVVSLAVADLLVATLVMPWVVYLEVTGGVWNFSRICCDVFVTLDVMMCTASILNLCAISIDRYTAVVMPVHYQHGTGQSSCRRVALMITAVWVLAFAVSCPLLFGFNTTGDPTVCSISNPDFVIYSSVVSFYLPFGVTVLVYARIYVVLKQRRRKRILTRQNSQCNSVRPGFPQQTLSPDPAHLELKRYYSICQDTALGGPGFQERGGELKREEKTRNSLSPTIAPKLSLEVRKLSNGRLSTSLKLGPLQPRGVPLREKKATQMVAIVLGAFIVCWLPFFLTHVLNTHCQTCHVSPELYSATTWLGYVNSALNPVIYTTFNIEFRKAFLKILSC
Sequence of human D2LR (P14416 whole entry): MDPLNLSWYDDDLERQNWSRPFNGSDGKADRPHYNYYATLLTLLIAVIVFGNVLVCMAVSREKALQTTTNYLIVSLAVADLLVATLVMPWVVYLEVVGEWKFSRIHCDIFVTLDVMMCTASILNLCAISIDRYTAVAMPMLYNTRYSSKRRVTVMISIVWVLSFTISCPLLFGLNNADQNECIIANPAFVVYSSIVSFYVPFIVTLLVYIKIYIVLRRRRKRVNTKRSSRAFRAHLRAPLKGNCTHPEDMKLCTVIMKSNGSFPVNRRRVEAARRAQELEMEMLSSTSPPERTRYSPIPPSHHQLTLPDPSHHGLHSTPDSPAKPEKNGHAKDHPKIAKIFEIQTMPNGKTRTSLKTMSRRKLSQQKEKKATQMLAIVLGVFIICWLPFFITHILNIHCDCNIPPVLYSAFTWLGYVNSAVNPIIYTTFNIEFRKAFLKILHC
Sequence of human D4.4 (P21917 whole entry): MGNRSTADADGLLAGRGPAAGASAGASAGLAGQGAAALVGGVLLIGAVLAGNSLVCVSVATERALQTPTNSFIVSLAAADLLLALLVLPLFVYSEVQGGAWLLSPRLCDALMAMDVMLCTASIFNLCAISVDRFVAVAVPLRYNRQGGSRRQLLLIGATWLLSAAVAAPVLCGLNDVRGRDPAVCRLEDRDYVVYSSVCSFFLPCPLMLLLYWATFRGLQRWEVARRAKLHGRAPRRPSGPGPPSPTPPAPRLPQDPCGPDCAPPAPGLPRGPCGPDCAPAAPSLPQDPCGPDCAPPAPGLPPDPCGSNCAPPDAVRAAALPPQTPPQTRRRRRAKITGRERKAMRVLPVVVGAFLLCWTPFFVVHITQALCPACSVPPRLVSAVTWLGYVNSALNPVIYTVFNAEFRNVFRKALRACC

SMILES | Ki [1, 4] | D2R/D3R ([2]; vs. [3H]-(R)-(+)-7-OH-DPAT) | Ki [2, 5] | further results
CCCN1CCO[C@@H]2c3cc(O)ccc3OC[C@@H]21 (racemic) [(±)-cis-2, reference compound] | – | – | – | Ki [1]: > 10000 nM; Ki [2]: > 10000 nM
C[C@H]1CO[C@H](c2ccc(N)nc2)CN1CC1CC1CNC(=O)c1cc2ccccc2[nH]1 (mixture of isomers) [rac-trans-AB05-26, trans-N-((2-(((2R,5S)-2-(6-aminopyridin-3-yl)-5-methylmorpholino)methyl)cyclopropyl)methyl)-1H-indole-2-carboxamide] | 14100 nM | 0.213 | 66200 nM | –
O=C(NCCCCNC1COc2ccc(O)cc2C1=O)c1cc2ccccc2[nH]1 (single isomer, unassigned) [SLC02-16A, N-(4-((6-hydroxy-4-oxochroman-3-yl)amino)butyl)-1H-indole-2-carboxamide] | 245 ± 32 nM | 0.710 | 354 ± 45.1 nM | –
O=C(NCCCCNC1COc2ccc(O)cc2C1=O)c1cc2ccccc2[nH]1 (single isomer, unassigned) [SLC02-16B, N-(4-((6-hydroxy-4-oxochroman-3-yl)amino)butyl)-1H-indole-2-carboxamide] | 1430 nM | 0.808 | 1770 nM | –
CCCN1CCO[C@@H]2c3cc(O)ccc3OC[C@H]21 [(+)-PD128,907, (4aR,10bR)-4-propyl-3,4,4a,10b-tetrahydro-2H,5H-chromeno[4,3-b][1,4]oxazin-9-ol, reference compound] | 20.5 ± 2.87 nM | 12.1 | 1.69 ± 0.0892 nM | D4R/D3R ([2]; vs. [3H]-(R)-(+)-7-OH-DPAT): 15.7; Ki [3]: 26.6 ± 3.97 nM
CCCN1CCO[C@@H]2c3cc(OCCCCN4C(=O)c5ccccc5C4=O)ccc3OC[C@H]21 [AB02-119] | 2510 nM | 2.11 | 1190 nM | –
CCCN1CC(c2ccc(N)nc2)OC[C@@H]1C (some centres unmarked) [AB03-02, reference compound] | – | 9.41 | 185 ± 20.5 nM | Ki ([1]; vs. [3H]-(R)-(+)-7-OH-DPAT, HEK293, read-out: hD2LR Ki ± SEM): 1740 ± 348 nM; D4R/D3R ([2]; vs. [3H]-(R)-(+)-7-OH-DPAT): 1.58; Ki [3]: 292 ± 22.2 nM
CCCN(CCC)c1ccc(C2CN(CCC)C(C)CO2)cn1 (centres unmarked) [AB03-14] | > 5000 nM | – | > 10000 nM | –
CCCN1CCO[C@@H]2c3cc(OCCCCOc4ccc5c(c4)NC(=O)CC5)ccc3OC[C@H]21 [AB04-38, 7-(4-(((4aR,10bR)-4-propyl-3,4,4a,10b-tetrahydro-2H,5H-chromeno[4,3-b][1,4]oxazin-9-yl)oxy)butoxy)-3,4-dihydroquinolin-2(1H)-one] | 10100 nM | 6.35 | 1590 nM | –
CCCN1CCO[C@@H]2c3cc(OCCCCNC(=O)c4ccc5scnc5c4)ccc3OC[C@H]21 [AB04-41, N-(4-(((4aR,10bR)-4-propyl-3,4,4a,10b-tetrahydro-2H,5H-chromeno[4,3-b][1,4]oxazin-9-yl)oxy)butyl)benzo[d]thiazole-5-carboxamide] | 9160 nM | 4.30 | 2130 nM | –
CCCN1CCO[C@@H]2c3cc(OCCCCNC(=O)c4cc5cccnc5[nH]4)ccc3OC[C@H]21 [AB04-42, N-(4-(((4aR,10bR)-4-propyl-3,4,4a,10b-tetrahydro-2H,5H-chromeno[4,3-b][1,4]oxazin-9-yl)oxy)butyl)-1H-pyrrolo[2,3-b]pyridine-2-carboxamide] | 27000 nM | 3.12 | 8660 nM | –
Oc1ccc2c(c1)[C@H]1OCCN[C@@H]1CO2 [AB04-75, (4aR,10bR)-3,4,4a,10b-tetrahydro-2H,5H-chromeno[4,3-b][1,4]oxazin-9-ol, reference compound] | 4250 nM | 10.5 | 403 ± 5.55 nM | –
C[C@H]1CO[C@H](c2ccc(N)nc2)CN1 [AB04-85A, 5-((2R,5S)-5-methylmorpholin-2-yl)pyridin-2-amine] | 7100 nM | 4.67 | 1520 nM | –
C[C@H]1CO[C@@H](c2ccc(N)nc2)CN1 [AB04-85B, 5-((2S,5S)-5-methylmorpholin-2-yl)pyridin-2-amine] | 2340 nM | 5.52 | 424 ± 32.4 nM | –
C[C@H]1CO[C@H](c2ccc(N)nc2)CN1CCCCOc1ccc2c(c1)NC(=O)CC2 [AB04-95, 7-(4-((2R,5S)-2-(6-aminopyridin-3-yl)-5-methylmorpholino)butoxy)-3,4-dihydroquinolin-2(1H)-one] | 2660 nM | 0.110 | 24200 nM | –
C[C@H]1CO[C@@H](c2ccc(N)nc2)CN1CCCCOc1ccc2c(c1)NC(=O)CC2 [AB04-96, 7-(4-((2S,5S)-2-(6-aminopyridin-3-yl)-5-methylmorpholino)butoxy)-3,4-dihydroquinolin-2(1H)-one] | 34.6 ± 4.86 nM | 1.11 | 31.2 ± 8.72 nM | D3R affinity, fold better than its (2R,5S) diastereoisomer ([2]; vs. [3H]-(R)-(+)-7-OH-DPAT): 775 fold
C[C@H]1CO[C@H](c2ccc(N)nc2)CN1C/C=C/COc1ccc2c(c1)NC(=O)CC2 [FOB01-42, 7-(((E)-4-((2R,5S)-2-(6-aminopyridin-3-yl)-5-methylmorpholino)but-2-en-1-yl)oxy)-3,4-dihydroquinolin-2(1H)-one] | 21100 nM | 0.289 | 73000 nM | –
C[C@H]1CO[C@@H](c2ccc(N)nc2)CN1C/C=C/COc1ccc2c(c1)NC(=O)CC2 [FOB01-44, 7-(((E)-4-((2S,5S)-2-(6-aminopyridin-3-yl)-5-methylmorpholino)but-2-en-1-yl)oxy)-3,4-dihydroquinolin-2(1H)-one] | 341 ± 27.6 nM | 0.297 | 1150 nM | –
CCCN1CCO[C@@H]2c3cc(OCCCCNC(=O)c4ccc5c(c4)Cc4ccccc4-5)ccc3OC[C@H]21 [SLC01-24, N-(4-(((4aR,10bR)-4-propyl-3,4,4a,10b-tetrahydro-2H,5H-chromeno[4,3-b][1,4]oxazin-9-yl)oxy)butyl)-9H-fluorene-2-carboxamide] | 6710 nM | 8.33 | 806 ± 185 nM | –
CCCN1CCO[C@@H]2c3cc(OCCCCNC(=O)c4cc5ccccc5[nH]4)ccc3OC[C@H]21 [SLC01-25, N-(4-(((4aR,10bR)-4-propyl-3,4,4a,10b-tetrahydro-2H,5H-chromeno[4,3-b][1,4]oxazin-9-yl)oxy)butyl)-1H-indole-2-carboxamide] | 3860 nM | 6.30 | 613 ± 50.6 nM | –
CCCN1CCO[C@@H]2c3cc(OCCCCNC(=O)c4cc5ccccc5o4)ccc3OC[C@H]21 [SLC01-26, N-(4-(((4aR,10bR)-4-propyl-3,4,4a,10b-tetrahydro-2H,5H-chromeno[4,3-b][1,4]oxazin-9-yl)oxy)butyl)benzofuran-2-carboxamide] | 9450 nM | 1.57 | 6010 nM | –
CCCN1CCO[C@@H]2c3cc(OCCCCNC(=O)c4nc5ccccc5s4)ccc3OC[C@H]21 [SLC01-35, N-(4-(((4aR,10bR)-4-propyl-3,4,4a,10b-tetrahydro-2H,5H-chromeno[4,3-b][1,4]oxazin-9-yl)oxy)butyl)benzo[d]thiazole-2-carboxamide] | 5510 nM | 4.14 | 1330 nM | –
O=C1CCc2ccc(OCCCCN3CCO[C@@H]4c5cc(O)ccc5OC[C@H]43)cc2N1 [SLC02-11, 7-(4-((4aR,10bR)-9-hydroxy-2,3,4a,10b-tetrahydro-4H,5H-chromeno[4,3-b][1,4]oxazin-4-yl)butoxy)-3,4-dihydroquinolin-2(1H)-one] | 6260 nM | 0.554 | 11300 nM | –
C[C@H]1CO[C@@H](c2ccc(N)nc2)CN1CC1CC1CNC(=O)c1cc2ccccc2[nH]1 (stereo partly drawn) [cis-FOB01-59A, cis-N-((2-(((2S,5S)-2-(6-aminopyridin-3-yl)-5-methylmorpholino)methyl)cyclopropyl)methyl)-1H-indole-2-carboxamide] | 1070 nM | 0.498 | 2150 nM | –
C[C@H]1CO[C@@H](c2ccc(N)nc2)CN1CC1CC1CNC(=O)c1cc2ccccc2[nH]1 (stereo partly drawn) [cis-FOB01-59B, cis-N-((2-(((2S,5S)-2-(6-aminopyridin-3-yl)-5-methylmorpholino)methyl)cyclopropyl)methyl)-1H-indole-2-carboxamide] | 120 ± 16.6 nM | 0.435 | 276 ± 30 nM | –
C[C@H]1CO[C@H](c2ccc(N)nc2)CN1CC1CC1CNC(=O)c1cc2ccccc2[nH]1 (stereo partly drawn) [cis-FOB01-60A, cis-N-((2-(((2R,5S)-2-(6-aminopyridin-3-yl)-5-methylmorpholino)methyl)cyclopropyl)methyl)-1H-indole-2-carboxamide] | 11300 nM | 0.431 | 26200 nM | –
C[C@H]1CO[C@H](c2ccc(N)nc2)CN1CC1CC1CNC(=O)c1cc2ccccc2[nH]1 (stereo partly drawn) [cis-FOB01-60B, cis-N-((2-(((2R,5S)-2-(6-aminopyridin-3-yl)-5-methylmorpholino)methyl)cyclopropyl)methyl)-1H-indole-2-carboxamide] | 7730 nM | 0.235 | 32900 nM | –
C[C@H]1CO[C@@H](c2ccc(N)nc2)CN1CC1CC1CNC(=O)c1cc2ccccc2[nH]1 (stereo partly drawn) [trans-AB05-27A, trans-N-((2-(((2S,5S)-2-(6-aminopyridin-3-yl)-5-methylmorpholino)methyl)cyclopropyl)methyl)-1H-indole-2-carboxamide] | 216 ± 32.6 nM | 0.182 | 1190 nM | Ki ([1]; vs. [3H]-(R)-(+)-7-OH-DPAT, HEK293 cells stably expressing hD2R, listed as AB05-27A, read-out: D2R Ki ± SEM): 216 nM
C[C@H]1CO[C@@H](c2ccc(N)nc2)CN1CC1CC1CNC(=O)c1cc2ccccc2[nH]1 (stereo partly drawn) [trans-AB05-27B, trans-N-((2-(((2S,5S)-2-(6-aminopyridin-3-yl)-5-methylmorpholino)methyl)cyclopropyl)methyl)-1H-indole-2-carboxamide] | 707 ± 19.8 nM | 1.75 | 404 ± 34 nM | Ki ([2]; vs. [3H]-(R)-(+)-7-OH-DPAT, HEK293 cells stably expressing hD3R, listed as AB05-27B, read-out: D3R Ki ± SEM): 404 nM

Source: patent US12479838B2, “D3 receptor agonist compounds; methods of preparation; intermediates thereof; and methods of use thereof” (THE UNITED STATES OF AMERICA, AS REPRESENTED BY THE …, priority 2019, dated 2025)
